Patent publication US10512656B2, “Compositions and methods for the treatment of lysosomal storage disorders and disorders characterized by lysosomal dysfunction” (Baylor College of Medicine, priority 2016, dated 2019)

Assays:
[1] = tested on: TFEB; assay: TFEB nuclear translocation in cells expressing constitutively active Akt (Akt-DD); assay type: cell-based, human; conditions: 24 h
Protocol: FIG. 16. Trehalose controls Akt regulation of TFEB in a GSK3β-independent manner. (a) HeLa cells were treated with trehalose for 24 h or left untreated. Immunoblot analyses were used to evaluate levels of GSK33 and its phosphorylation status. GAPDH was used as a loading control. (b) HeLa cells were cotransfected with TFEB-3×Flag and constitutively active GSK3β (CA-GSK3β), treated with trehalose or MK2206 for 24 h, and examined by immunofluorescence labeling for Flag (red) and GSK3β (green). Scale bar is 20 […]. (c) HeLa cells were cotransfected with TFEB-3×Flag and constitutively active Akt (Akt-DD), treated with the GSK3β inhibitor CHIR99021 for 24 h, and examined by immunofluorescence labeling for Flag (red) and Akt (green). Scale bar is 20 μm.

[2] = tested on: TFEB; assay: TFEB nuclear translocation in HeLa/TFEB cells; assay type: cell-based, human; conditions: confocal microscopy and subcellular fractionation
Protocol: Control (Coriell Institute, USA) and JNCL fibroblasts (Gaslini Institute, Italy) were grown in DMEM (1:1, HyClone) supplemented with 10% heat-inactivated fetal bovine serum (FBS, Atlanta Biologicals), 2 mM L-glutamine, 100 U/ml penicillin and […] streptomycin (Invitrogen). HeLa cells were incubated for 2 h with LY294002 ([…], Cell Signaling), Torin 1 (300 nM, Cayman Chemical) or for 24 h with trehalose (100 mM, Sigma), rapamycin (300 nM, Sigma), MK2206 (1 μM, Selleckchem), U0126 ([…], Tocris) and dialyzed serum (GE Healthcare Life Sciences) for 30 min. For immunofluorescence assay, cells were grown on coverslips in 24-well plates. After the treatment, cells were washed with PBS and fixed with methanol for 10 min. Cells were then blocked with blocking reagent (0.1% saponin, 10% bovine serum in PBS) for 1 h and incubated with appropriate primary antibody(s) (1:100) for 3 h at room temperature. After three washes with PBS, the cells were incubated with appropriate secondary antibodies (1:500) for 1 h at room temperature. Coverslips were then mounted with vectashield containing 4,6-diamidino-2-phenylindole (H-1200) for imaging via confocal microscopy. Cell pellets were resuspended in lysis buffer (10 mM Hepes pH 7.9, 10 mM KCl, 0.1 mM EDTA and 0.4% Nonidet P40) with inhibitors by pipetting and kept in ice for 30 min. After 1 min of spin at full speed, the supernatant was collected as cytosolic fraction. The pellet was washed twice with lysis buffer and resuspended with nuclear buffer (20 mM Hepes pH 7.9, 0.4M NaCl and 1 mM EDTA) containing phosphatases and proteases inhibitors. After 15 min of vigorous shaking on an Eppendorf shaker, the pellet was spun down at full speed for 10 min. The supernatant was used as the nuclear fraction.

[3] = tested on: Batten mice (Cln3 KO mice); assay: Neuronal cell death (density of CAS-3 positive cells); assay type: in vivo, mouse
Protocol: (§1) Batten mice (Cln3 KO mice) were administered trehalose, a low dose of miglustat, a high dose of miglustat, or a combination of trehalose and miglustat. Two controls were used in these experiments: (1) untreated Batten mice, and (2) untreated wild type mice. Neuronal cell death (measured by the density (no. of cells/area) of CAS-3 positive cells), neuroinflammation (measured by the number of GFAP-positive astrocyte cells in the neuronal system), and macrophage infiltration into the nervous system (measured by the % area of CD68) were measured.

[4] = tested on: Batten mice (Cln3 KO mice); assay: Astrogliosis (GFAP-positive cells); assay type: in vivo, mouse
Protocol: as §1

[5] = tested on: Batten mice (Cln3 KO mice); assay: Macrophage infiltration (% area of CD68); assay type: in vivo, mouse
Protocol: as §1

[6] = biological target: TFEB-3×FLAG (transcription factor EB, wild type, Flag-tagged) (UniProt P19484)
Sequence of TFEB-3×FLAG (transcription factor EB, wild type, Flag-tagged) (P19484 whole entry): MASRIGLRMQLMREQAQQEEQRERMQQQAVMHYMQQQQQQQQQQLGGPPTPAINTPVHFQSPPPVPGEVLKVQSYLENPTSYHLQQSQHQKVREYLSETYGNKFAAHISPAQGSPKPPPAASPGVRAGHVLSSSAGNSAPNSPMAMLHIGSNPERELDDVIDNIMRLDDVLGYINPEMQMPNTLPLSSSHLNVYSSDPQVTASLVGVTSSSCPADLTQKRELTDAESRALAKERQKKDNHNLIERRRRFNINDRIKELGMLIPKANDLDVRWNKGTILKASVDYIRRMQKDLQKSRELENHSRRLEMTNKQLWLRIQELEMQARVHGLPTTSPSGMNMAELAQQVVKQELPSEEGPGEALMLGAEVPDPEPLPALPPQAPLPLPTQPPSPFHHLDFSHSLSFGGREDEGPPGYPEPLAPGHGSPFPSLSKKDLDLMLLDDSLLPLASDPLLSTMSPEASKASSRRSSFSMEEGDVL

[7] = all miglustat-treated Batten mice
[8] = all miglustat-treated mice, P<0.05

For Cc1c[nH]c(-c2cnc(NCCNc3ccc(C#N)cn3)nc2-c2ccc(Cl)cc2Cl)n1 [CHIR-99021], the TFEB nuclear translocation [1] was “promoted nuclear translocation of TFEB”.

For CCC(=O)N1CCN(c2ccc(-n3c(=O)ccc4cnc5ccc(-c6cnc7ccccc7c6)cc5c43)cc2C(F)(F)F)CC1 [Torin 1], the “TFEB nuclear translocation on kinase inhibitors” value [2] was “TFEB nuclear translocation”.

CCCCN1C[C@H](O)[C@@H](O)[C@H](O)[C@H]1CO [miglustat] was tested, and the “neuronal cell death vs wild-type mice” value [3, 7] was “indistinguishable from the wild-type mice”, the “neuronal cell death vs untreated Batten mice” value ([3]; low dose, high dose, or combined with trehalose, P<0.05) was “less neuronal cell death” and the “astrogliosis vs wild-type mice” value [4, 7] was “indistinguishable from the wild-type mice”. The “GFAP-positive cells vs untreated Batten mice” value [4, 8] was “less GFAP-positive cells”, the “macrophage infiltration vs wild-type mice” value [5, 7] was “indistinguishable from the wild-type mice” and the “macrophage infiltration vs untreated Batten mice” value [5, 8] was “less macrophage infiltration”.

With “purified, active AKT1 enzyme (SignalChem)” the “in vitro Akt kinase assay ([32P]ATP, autoradiography)” value [6] was “Akt phosphorylates purified TFEB”.
